Where two headings read alike, the source gives them in different places.
Legend:
ERRγ1 = target: T1, ERRγ1 (Homo sapiens, UniProt P62508); conditions: stated as known property; cited from earlier work
T1 sequence (P62508 1-435 isoform P62508-2): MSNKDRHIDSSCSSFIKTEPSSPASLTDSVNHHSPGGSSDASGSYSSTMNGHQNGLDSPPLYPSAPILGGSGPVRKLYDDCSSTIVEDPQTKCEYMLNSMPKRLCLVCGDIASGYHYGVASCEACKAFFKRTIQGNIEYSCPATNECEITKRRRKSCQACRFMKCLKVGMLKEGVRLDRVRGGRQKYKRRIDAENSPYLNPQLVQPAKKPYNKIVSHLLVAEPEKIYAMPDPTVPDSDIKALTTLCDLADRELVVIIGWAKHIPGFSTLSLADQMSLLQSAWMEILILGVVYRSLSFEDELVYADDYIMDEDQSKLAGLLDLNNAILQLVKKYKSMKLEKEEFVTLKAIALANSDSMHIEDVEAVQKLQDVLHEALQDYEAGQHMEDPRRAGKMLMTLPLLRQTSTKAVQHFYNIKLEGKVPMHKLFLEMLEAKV

ERRγ2 = conditions: stated as known property, cited from earlier work
RARα = target: T2, RARα (Homo sapiens, UniProt P10276); assay: Reporter gene assay, ERRγ3 coexisted with RARα, pGVP2-RARE in CV-1 cells; assay type: cell-based; conditions: 5×10^−8 M retinoic acid, FIG. 22
T2 construct: expressed in transfected cells; host or cells: CV-1 (African green monkey kidney)
T2 sequence (P10276 1-462): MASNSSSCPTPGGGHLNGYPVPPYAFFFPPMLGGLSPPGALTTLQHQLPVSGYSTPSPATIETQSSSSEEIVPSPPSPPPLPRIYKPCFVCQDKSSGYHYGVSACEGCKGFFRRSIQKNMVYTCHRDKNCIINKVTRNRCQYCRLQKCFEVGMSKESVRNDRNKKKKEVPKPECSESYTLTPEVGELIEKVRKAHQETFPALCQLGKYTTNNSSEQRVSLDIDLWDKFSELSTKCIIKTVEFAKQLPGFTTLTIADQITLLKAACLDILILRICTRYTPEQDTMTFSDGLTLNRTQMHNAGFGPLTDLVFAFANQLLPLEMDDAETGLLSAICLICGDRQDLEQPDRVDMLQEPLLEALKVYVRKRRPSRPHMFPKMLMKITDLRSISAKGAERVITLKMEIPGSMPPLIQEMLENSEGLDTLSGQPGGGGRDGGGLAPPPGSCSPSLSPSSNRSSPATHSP
T2 sequence (P19793 1-462 partner): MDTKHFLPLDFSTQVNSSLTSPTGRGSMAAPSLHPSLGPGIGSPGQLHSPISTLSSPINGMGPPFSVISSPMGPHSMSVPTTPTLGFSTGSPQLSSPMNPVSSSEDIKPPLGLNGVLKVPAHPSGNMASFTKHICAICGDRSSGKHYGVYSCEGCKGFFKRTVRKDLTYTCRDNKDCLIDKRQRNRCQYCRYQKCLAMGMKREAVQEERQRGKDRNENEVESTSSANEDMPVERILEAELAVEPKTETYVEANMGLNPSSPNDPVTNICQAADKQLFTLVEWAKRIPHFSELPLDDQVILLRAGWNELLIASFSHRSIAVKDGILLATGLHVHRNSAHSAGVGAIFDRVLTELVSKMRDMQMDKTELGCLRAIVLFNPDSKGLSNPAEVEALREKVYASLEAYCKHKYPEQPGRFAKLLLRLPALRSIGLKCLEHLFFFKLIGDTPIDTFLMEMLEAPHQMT
Text: The reporter gene assay was used to evaluate the effect of ligand 4-hydroxytamoxifen and 5×10^−8 M of retinoic acid on the function of ERRγ3 in enhancing the transcriptional activation function of retinoic acid receptor (RAR) (FIG. 22). RAR is a nuclear receptor belonging to group B of subfamily 1.
CV-1 cells (a cell line derived from the kidney of African green monkey) were used as hosts in the reporter gene assay. The luciferase reporter plasmid pGVP2-RARE and the expression plasmids for ERRγ3 and RARα: pcDNA3.1-ERRγ3 and pcDNA3.1-RARα, respectively, or alternatively the expression plasmid for both nuclear receptors, were transfected into the host cells. […]
Transfection was performed as follows: CV-1 cells were resuspended in DMEM supplemented with 10% fetal bovine serum, 2000 U/l of penicillin G, and 100 mg/l of streptomycin to a concentration of 2×10^5 cells/2.5 ml. […] 1 μg of each of the expression plasmids for the transcription factors, the luciferase reporter plasmid, and another luciferase reporter plasmid used for normalization of the measured values (pRL-TK), were dissolved in Opti-MEM (Gibco BRL), to a total of 150 μl. […] Luciferase activity was measured using the Dual-Luciferase™ Reporter Assay System (Promega). […] The protocol for measurement was as follows: 50 μl of Luciferase Assay Reagent II was added to each well, stirred for 0.3 seconds, and measured for one second. […]

Chain of ERRγ2 (P62508 whole entry): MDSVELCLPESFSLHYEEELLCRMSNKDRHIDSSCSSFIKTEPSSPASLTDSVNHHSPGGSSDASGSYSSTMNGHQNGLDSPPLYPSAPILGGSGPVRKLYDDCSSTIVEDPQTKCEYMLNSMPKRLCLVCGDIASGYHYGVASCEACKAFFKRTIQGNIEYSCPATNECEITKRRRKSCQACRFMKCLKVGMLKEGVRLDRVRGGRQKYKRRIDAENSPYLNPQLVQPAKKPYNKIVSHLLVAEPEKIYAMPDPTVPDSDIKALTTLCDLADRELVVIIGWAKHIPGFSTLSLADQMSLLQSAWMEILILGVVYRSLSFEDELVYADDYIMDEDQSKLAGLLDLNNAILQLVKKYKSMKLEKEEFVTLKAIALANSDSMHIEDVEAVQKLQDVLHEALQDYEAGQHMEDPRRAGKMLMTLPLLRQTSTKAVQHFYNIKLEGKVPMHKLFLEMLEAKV

4-hydroxytamoxifen [reference compound]
binding to ERRγ1 (ERRγ1): capable of binding | inhibition of the transcriptional activation function of ERRγ2 (ERRγ2): known to inhibit ERRγ2 activity | inhibition of the transcriptional activation function of ERRγ2 (ERRγ2; listed as 4-OHT): inhibiting their transcriptional activation function

B1: ERRγ3: novel ERRγ isoform, nuclear receptor protein of 396 amino acids (SEQ ID NO: 2) lacking part of the DNA binding domain (protein, listed as Homo sapiens)
chain: MSNKDRHIDSSCSSFIKTEPSSPASLTDSVNHHSPGGSSDASGSYSSTMNGHQNGLDSPPLYPSAPILGGSGPVRKLYDDCSSTIVEDPQTKCEYMLNSMPKRLCLVCGDIASGYHYGVASCEACKAFFKRTIQGVRLDRVRGGRQKYKRRIDAENSPYLNPQLAQPAKKPYNKIVSHLLVAEPEKIYAMPDPTVPDSDIKALTTLCDLADRELVVIIGWAKHIPGFSTLSLADQMSLLQSAWMEILILGVVYRSLSFEDELVYADDYIMDEDQSKLAGLLDLNNAILQLVKKYKSMKLEKEEFVTLKAIALANSDSMHIEDVEAVQKLQDVLHEALQDYEAGQHMEDPRRAGKMLMTLPLLRQTSTKAVQHFYNIKLEGKVPMHKLFLEMLEAKV
modifying effect on the transcriptional stimulation activity of RAR (RARα): did not show a significant modifying effect
